Measurements from US20040033483A1, “Cell diagnosing method, and device and apparatus use for it” (priority 2001, published 2004).

What was measured:
[1] = system: normal cells prepared from the fundus of rat stomach; experiment: Electrical signal of cells on the cell diagnosis device on applying Carbachol, normal cells; type: cell-based
Experimental: (§1) A cell diagnosis apparatus comprising the device shown in FIG. 3 as a measuring section (signal source) 101, which has a configuration shown in FIG. 4, was used. Normal cells and cancer cells were prepared as samples from the fundus of rat stomach. The apparatus was used to measure the action of a chemical substance, Carbachol, on these samples.
Carbachol is a chemical substance known as an analog of the neurotransmitter Acetylcholine. Carbachol (manufactured by Sigma) was dissolved in Krebs Ringer solution to concentrations of 0, 0.1, 0.3, 1, 3 10, 30 and 100 μM. The solutions having these concentrations were used to measure an electrical signal when each solution was applied to the normal cells and the cancer cells derived from the fundus of stomach. For each Carbachol concentration, time-series signal values for 10 seconds were obtained from the measuring section (signal source) 101 comprising the cell diagnosis device shown in FIG. 3, and was sampled at intervals of 100 msec to obtain time-series data, and the standard deviation of the sampling data was calculated. […]
(§2) Before and after 50 μM-concentration Carbachol was applied to the normal cells and the cancer cells prepared from the fundus of rat stomach, signals were obtained from the measuring section (signal source) 101, and the standard deviation of the signals was calculated in a manner similar to that of Example 1.

[2] = system: cancer cells prepared from the fundus of rat stomach; experiment: Electrical signal of cells on the cell diagnosis device on applying Carbachol, cancer cells; type: cell-based
Experimental: as §1
Carbachol is a chemical substance known as an analog of the neurotransmitter Acetylcholine. Carbachol (manufactured by Sigma) was dissolved in Krebs Ringer solution to concentrations of 0, 0.1, 0.3, 1, 3 10, 30 and 100 μM. The solutions having these concentrations were used to measure an electrical signal when each solution was applied to the normal cells and the cancer cells derived from the fundus of stomach. For each Carbachol concentration, time-series signal values for 10 seconds were obtained from the measuring section (signal source) 101 comprising the cell diagnosis device shown in FIG. 3, and was sampled at intervals of 100 msec to obtain time-series data, and the standard deviation of the sampling data was calculated. The average of the standard deviation was plotted in FIG. 8. In FIG. 8, black circles indicate results obtained from cells including cancer cells and white circles indicate results obtain from normal cells.
The apparatus having the configuration shown in FIG. 5, which comprises the device shown in FIG. 3 as a measuring section (signal source), was used to measure the action of Carbachol on samples, where the samples were normal cells and cells including cancer cells prepared from the fundus of rat stomach, as in Example 1.
as §2

[3] = 50 μM Carbachol, before versus after application, 10 seconds, FIG. 9
[4] = Carbachol 0, 0.1, 0.3, 1, 3, 10, 30 and 100 μM in Krebs Ringer solution, 10 seconds signal, FIG. 8

Question: How did the “average of the standard deviation every 5 msec after applying Carbachol” value [1, 3] turn out when `C[N+](C)(C)CCOC(N)=O` [Carbachol] was run?
Answer: increased

Question: What about the “average of the standard deviation of the electrical signal at 100 msec intervals” value [1, 4] of the same molecule?
Answer: the higher the Carbachol concentration, the higher the average of the standard deviation

Question: And the “average and half-width of the normal distribution of standard deviations compared with the normal cell” value ([2]; 50 μM Carbachol, FIG. 9)?
Answer: larger average and half-width values than those of the normal cell

Question: And the “average of the standard deviation every 5 msec after applying Carbachol” value [2, 3]?
Answer: increased

Question: And the “average of the standard deviation of the electrical signal at 100 msec intervals” value [2, 4]?
Answer: the higher the Carbachol concentration, the higher the average of the standard deviation
